In US9505734B2, “Phenyl C-glucoside derivative containing deoxyglucose structure, preparation method and use thereof” (Tianjin Institute of Pharmaceutical Research, priority 2012, dated 2016):
Read-outs that look alike come from different tables or passages of the source.

Experiments:
[1] = test system: SD rats (type 2 diabetes model); assay: model for rat urine glucose excretion (glucose-oxidase method); assay type: in vivo; conditions: type 2 diabetes model SD rats, 6 mg/kg intragastrically, glucose 2 g/kg at 0.5 h, urine collected 0-12 h
Description: The health SD rats are injected intraperitoneally with multiple low doses of streptozotocin for modeling (type 2 diabetes model) after feeding with high-fat and high-sucrose diet, and the content of blood glucose is measured before and after modeling. After the modeling successful, the rats for modeling are randomly divided (8 rats/group) into one blank group (administering the same volume of 0.5% CMC sodium solution) and several groups for compounds to be tested (6 mg/kg) according to the content of 24-hour urine glucose and the body weight. Rats in each group are fasted for 16 hours before experiment. The experimental rats are administered intragastrically with glucose (2 g/kg) at 0.5 h after intragastrical administration with compounds to be tested. The urine is collected at the time-period of 0-12 h after administration, and the urine glucose values are measured at each time-period by glucose-oxidase method.
The inhibiting activity of the cocrystal of I-D1-6 and L-proline on SGLT2 is measured by the model for rat urine glucose excretion.
The health SD rats are injected intraperitoneally with multiple low doses of streptozotocin for modeling (type 2 diabetes model) after feeding with high-fat and high-sucrose diet for one month, and the content of blood glucose is measured before and after modeling. After the modeling successful, the rats for modeling are randomly divided (8 rats/group) into one blank group (administering the same volume of 0.5% CMC sodium solution) and groups of tested compound (6 mg/kg) according to the content of 24-hour urine glucose and the body weight. Rats in each group are fasted for 16 hours before experiment. The experimental rats are administered intragastrically with the glucose (2 g/kg) at 0.5 h after intragastrical administration with the cocrystal of I-D1-6 and L-proline prepared in Example 138. The urine is collected at the time-period of 0-12 h after administration, and the urine glucose values are measured at each time-period by glucose-oxidase method.

[2] = mice, 10 mice/group, single intragastric dose 750 mg/kg, within one week
[3] = both, mouse, in vivo, 750 mg/kg, 1 week
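For Behaviors after administration with the compound to be tested (deaths) in this document: mice weighing 18–20 g, both sexes in equal proportion within each group.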

Description for Mice: Mice (18-20 g) with equal numbers of male and female are divided into groups (10 mice/group), after normal feeding for 3 days, fasted for 12 hours, and then administered intragastrically with a single dose of 750 mg/kg compound respectively.

SMILES: OCC1OC(c2ccc(Cl)c(Cc3ccc(O[C@H]4CCOC4)cc3)c2)CC(O)C1O (some centres unmarked) [drawing 234]
- Urine glucose excretion (mg/200 g body weight of the rat) [1]: 744 mg/200 g body weight of the rat

SMILES: CCOc1ccc(Cc2cc(C3OC(CO)C(O)CC3O)ccc2Cl)cc1 (centres unmarked) [drawing 237]
- Urine glucose excretion (mg/200 g body weight of the rat) [1]: 828 mg/200 g body weight of the rat

SMILES: Cc1ccc(C2OC(C)C(O)C(O)C2O)cc1Cc1ccc(-c2ccc(F)cc2)s1 (centres unmarked) [drawing 238]
- Urine glucose excretion (mg/200 g body weight of the rat) [1]: 723 mg/200 g body weight of the rat

SMILES: Cc1ccc(C2OC(CO)C(O)CC2O)cc1Cc1ccc(-c2ccc(F)cc2)s1 (centres unmarked) [drawing 239]
- Urine glucose excretion (mg/200 g body weight of the rat) [1]: 772 mg/200 g body weight of the rat

SMILES: OCC1OC(c2ccc(F)c(Cc3cc4ccccc4s3)c2)C(O)CC1O (centres unmarked) [drawing 240]
- Urine glucose excretion (mg/200 g body weight of the rat) [1]: 656 mg/200 g body weight of the rat

SMILES: OCC1CC(O)C(O)C(c2ccc(F)c(Cc3cc4ccccc4s3)c2)O1 (centres unmarked) [drawing 241]
- Urine glucose excretion (mg/200 g body weight of the rat) [1]: 689 mg/200 g body weight of the rat

SMILES: OCC1OC(c2ccc(F)c(Cc3cc4ccccc4s3)c2)CC(O)C1O (centres unmarked) [drawing 242]
- Urine glucose excretion (mg/200 g body weight of the rat) [1]: 716 mg/200 g body weight of the rat

SMILES: COc1ccc(Cc2cc(C3OC(C)C(O)C(O)C3O)ccc2Cl)cc1 (centres unmarked) [drawing 243]
- Urine glucose excretion (mg/200 g body weight of the rat) [1]: 457 mg/200 g body weight of the rat

SMILES: OCC1CC(O)C(O)C(c2ccc(Cl)c(Cc3ccc(O[C@H]4CCOC4)cc3)c2)O1 (some centres unmarked) [drawing 244]
- Urine glucose excretion (mg/200 g body weight of the rat) [1]: 723 mg/200 g body weight of the rat

SMILES: CCc1ccc(Cc2c(Cl)ccc3c2COC32OC(CO)CC(O)C2O)cc1 (centres unmarked) [drawing 245]
- Urine glucose excretion (mg/200 g body weight of the rat) [1]: 634 mg/200 g body weight of the rat

SMILES: CCc1ccc(Cc2c(Cl)ccc3c2COC32OC(CO)C(O)CC2O)cc1 (centres unmarked) [drawing 246]
- Urine glucose excretion (mg/200 g body weight of the rat) [1]: 712 mg/200 g body weight of the rat

SMILES: CCOc1ccc(Cc2cc(C3SC(CO)CC(O)C3O)c(OC)cc2C)cc1 (centres unmarked) [drawing 247]
- Urine glucose excretion (mg/200 g body weight of the rat) [1]: 677 mg/200 g body weight of the rat

SMILES: CCc1ccc(Cc2c(Cl)ccc3c2COC32CC(O)C(O)C(CO)O2)cc1 (centres unmarked) [drawing 248]
- Urine glucose excretion (mg/200 g body weight of the rat) [1]: 717 mg/200 g body weight of the rat

SMILES: CCOc1ccc(Cc2cc(C3CC(O)C(O)C(CO)S3)c(OC)cc2C)cc1 (centres unmarked) [drawing 249]
- Urine glucose excretion (mg/200 g body weight of the rat) [1]: 786 mg/200 g body weight of the rat

SMILES: CCOc1ccc(Cc2cc([C@]34OC[C@](C)(O3)[C@@H](O)[C@H](O)[C@H]4O)ccc2Cl)cc1 [drawing 250]
- Urine glucose excretion (mg/200 g body weight of the rat) [1]: 665 mg/200 g body weight of the rat

SMILES: CCOc1ccc(Cc2cc([C@@]34OC[C@@](CO)(C[C@H](O)[C@H]3O)O4)ccc2Cl)cc1 [drawing 251]
- Urine glucose excretion (mg/200 g body weight of the rat) [1]: 751 mg/200 g body weight of the rat

SMILES: CCOc1ccc(Cc2cc(C3OC(C)CC(O)C3O)ccc2Cl)cc1 (centres unmarked) [drawing 252]
- Urine glucose excretion (mg/200 g body weight of the rat) [1]: 765 mg/200 g body weight of the rat

SMILES: CC1OC(c2ccc(F)c(Cc3cc4ccccc4s3)c2)CC(O)C1O (centres unmarked) [drawing 253]
- Urine glucose excretion (mg/200 g body weight of the rat) [1]: 656 mg/200 g body weight of the rat

SMILES: CCc1ccc(Cc2c(Cl)ccc3c2COC32CC(O)CC(CO)O2)cc1 (centres unmarked) [drawing 254]
- Urine glucose excretion (mg/200 g body weight of the rat) [1]: 677 mg/200 g body weight of the rat

SMILES: CCc1ccc(Cc2c(Cl)ccc3c2COC32OC(C)C(O)C(O)C2O)cc1 (centres unmarked) [drawing 255]
- Urine glucose excretion (mg/200 g body weight of the rat) [1]: 755 mg/200 g body weight of the rat

SMILES: CCOc1ccc(Cc2cc(C3SC(CO)C(O)CC3O)c(OC)cc2C)cc1 (centres unmarked) [drawing 256]
- Urine glucose excretion (mg/200 g body weight of the rat) [1]: 766 mg/200 g body weight of the rat

SMILES: CCOc1ccc(Cc2cc(C3SC(CO)C(O)CC3O)c(OC)cc2C)cc1 (centres unmarked) [drawing 257]
- Urine glucose excretion (mg/200 g body weight of the rat) [1]: 728 mg/200 g body weight of the rat

SMILES: CCOc1ccc(Cc2cc(C3SC(C)C(O)C(O)C3O)c(OC)cc2C)cc1 (centres unmarked) [drawing 258]
- Urine glucose excretion (mg/200 g body weight of the rat) [1]: 698 mg/200 g body weight of the rat

SMILES: CCOc1ccc(Cc2cc([C@]34C[C@@H](O)[C@H](O)[C@](CO)(CO3)O4)ccc2Cl)cc1 [drawing 259]
- Urine glucose excretion (mg/200 g body weight of the rat) [1]: 565 mg/200 g body weight of the rat

SMILES: CCOc1ccc(Cc2cc([C@]34OC[C@](CO)(O3)[C@@H](O)C[C@H]4O)ccc2Cl)cc1 [drawing 260]
- Urine glucose excretion (mg/200 g body weight of the rat) [1]: 711 mg/200 g body weight of the rat

SMILES: Cc1ccc(C2OC(C)C(O)CC2O)cc1Cc1ccc(-c2ccc(F)cc2)s1 (centres unmarked) [drawing 261]
- Urine glucose excretion (mg/200 g body weight of the rat) [1]: 701 mg/200 g body weight of the rat

SMILES: OCC1CCC(O)C(c2ccc(Cl)c(Cc3ccc(O[C@H]4CCOC4)cc3)c2)O1 (some centres unmarked) [drawing 262]
- Urine glucose excretion (mg/200 g body weight of the rat) [1]: 721 mg/200 g body weight of the rat

SMILES: CCOc1ccc(Cc2cc(C3CCC(O)C(CO)S3)c(OC)cc2C)cc1 (centres unmarked) [drawing 263]
- Urine glucose excretion (mg/200 g body weight of the rat) [1]: 730 mg/200 g body weight of the rat

SMILES: CCOc1ccc(Cc2cc(C3OC(CO)C(O)C(O)C3O)ccc2Cl)cc1 (centres unmarked) [drawing 264]
- Behaviors after administration with the compound to be tested (deaths) (Mice; [2]): 8 dead

SMILES: OCC1OC(c2ccc(F)c(Cc3cc4ccccc4s3)c2)C(O)C(O)C1O (centres unmarked) [drawing 265]
- Behaviors after administration with the compound to be tested (deaths) (Mice; [3]): 7 dead

SMILES: CCc1ccc(Cc2c(Cl)ccc3c2COC32OC(CO)C(O)C(O)C2O)cc1 (centres unmarked) [drawing 266]
- Behaviors after administration with the compound to be tested (deaths) (Mice; [2]): 7 dead

SMILES: CCOc1ccc(Cc2cc([C@]34OC[C@](CO)(O3)[C@@H](O)[C@H](O)[C@H]4O)ccc2Cl)cc1 [drawing 267]
- Behaviors after administration with the compound to be tested (deaths) (Mice; [2]): 9 dead

SMILES: CCCOc1ccc(Cc2cc(C3OC(C)C(O)C(O)C3O)ccc2Cl)cc1 (centres unmarked) [drawing 268]
- Behaviors after administration with the compound to be tested (deaths) (Mice; [2]): 6 dead

SMILES: CCOc1ccc(Cc2cc(C3OC(CO)CC(O)C3O)ccc2Cl)cc1 (centres unmarked) [drawing 269]
- Behaviors after administration with the compound to be tested (deaths) (Mice; [2]): 2 dead

SMILES: CCOc1ccc(Cc2cc(C3CC(O)C(O)C(CO)O3)ccc2Cl)cc1 (centres unmarked) [drawing 270]
- Behaviors after administration with the compound to be tested (deaths) (Mice; [2]): 2 dead

SMILES: Cc1ccc(C2OC(CO)CC(O)C2O)cc1Cc1ccc(-c2ccc(F)cc2)s1 (centres unmarked) [drawing 271]
- Behaviors after administration with the compound to be tested (deaths) (Mice; [2]): 3 dead

SMILES: Cc1ccc(C2CC(O)C(O)C(CO)O2)cc1Cc1ccc(-c2ccc(F)cc2)s1 (centres unmarked) [drawing 272]
- Behaviors after administration with the compound to be tested (deaths) (Mice; [2]): 5 dead

SMILES: CC1OC(c2ccc(F)c(Cc3cc4ccccc4s3)c2)C(O)C(O)C1O (centres unmarked) [drawing 273]
- Behaviors after administration with the compound to be tested (deaths) (Mice; [2]): 2 dead

SMILES: OCC1OC(c2ccc(Cl)c(Cc3ccc(O[C@H]4CCOC4)cc3)c2)C(O)CC1O (some centres unmarked) [drawing 274]
- Behaviors after administration with the compound to be tested (deaths) (Mice; [2]): 0 dead

SMILES: Cc1ccc(C2OC(CO)C(O)C(O)C2O)cc1Cc1ccc(-c2ccc(F)cc2)s1 (centres unmarked) [drawing 275]
- Behaviors after administration with the compound to be tested (deaths) (Mice; [2]): 9 dead

SMILES: OCC1OC(c2ccc(Cl)c(Cc3ccc(O[C@H]4CCOC4)cc3)c2)C(O)C(O)C1O (some centres unmarked) [drawing 276]
- Behaviors after administration with the compound to be tested (deaths) (Mice; [2]): 7 dead

SMILES: CCOc1ccc(Cc2cc(C3SC(CO)C(O)C(O)C3O)c(OC)cc2C)cc1 (centres unmarked) [drawing 277]
- Behaviors after administration with the compound to be tested (deaths) (Mice; [3]): 10 dead

SMILES: COc1ccc(Cc2cc(C3OC(C)C(O)C(O)C3O)ccc2Cl)cc1 (centres unmarked) [drawing 278]
- Behaviors after administration with the compound to be tested (deaths) (Mice; [2]): 7 dead

SMILES: CCOc1ccc(Cc2cc(C3OC(C)C(O)C(O)C3O)ccc2Cl)cc1 (centres unmarked) [drawing 279]
- Behaviors after administration with the compound to be tested (deaths) (Mice; [2]): 1 dead

SMILES: CCOc1ccc(Cc2cc(C3OC(CO)C(O)CC3O)ccc2Cl)cc1 (centres unmarked) [drawing 280]
- Behaviors after administration with the compound to be tested (deaths) (Mice; [2]): 3 dead

SMILES: Cc1ccc(C2OC(C)C(O)C(O)C2O)cc1Cc1ccc(-c2ccc(F)cc2)s1 (centres unmarked) [drawing 281]
- Behaviors after administration with the compound to be tested (deaths) (Mice; [2]): 4 dead

SMILES: Cc1ccc(C2OC(CO)C(O)CC2O)cc1Cc1ccc(-c2ccc(F)cc2)s1 (centres unmarked) [drawing 282]
- Behaviors after administration with the compound to be tested (deaths) (Mice; [2]): 3 dead

SMILES: OCC1OC(c2ccc(F)c(Cc3cc4ccccc4s3)c2)C(O)CC1O (centres unmarked) [drawing 283]
- Behaviors after administration with the compound to be tested (deaths) (Mice; [2]): 0 dead

SMILES: OCC1CC(O)C(O)C(c2ccc(F)c(Cc3cc4ccccc4s3)c2)O1 (centres unmarked) [drawing 284]
- Behaviors after administration with the compound to be tested (deaths) (Mice; [2]): 1 dead

SMILES: OCC1OC(c2ccc(F)c(Cc3cc4ccccc4s3)c2)CC(O)C1O (centres unmarked) [drawing 285]
- Behaviors after administration with the compound to be tested (deaths) (Mice; [2]): 3 dead

SMILES: CC1OC(c2ccc(Cl)c(Cc3ccc(O[C@H]4CCOC4)cc3)c2)C(O)C(O)C1O (some centres unmarked) [drawing 286]
- Behaviors after administration with the compound to be tested (deaths) (Mice; [2]): 1 dead

SMILES: OCC1OC(c2ccc(Cl)c(Cc3ccc(O[C@H]4CCOC4)cc3)c2)CC(O)C1O (some centres unmarked) [drawing 287]
- Behaviors after administration with the compound to be tested (deaths) (Mice; [2]): 2 dead

SMILES: CCc1ccc(Cc2c(Cl)ccc3c2COC32OC(CO)C(O)CC2O)cc1 (centres unmarked) [drawing 288]
- Behaviors after administration with the compound to be tested (deaths) (Mice; [2]): 5 dead

SMILES: CCOc1ccc(Cc2cc(C3SC(CO)CC(O)C3O)c(OC)cc2C)cc1 (centres unmarked) [drawing 289]
- Behaviors after administration with the compound to be tested (deaths) (Mice; [2]): 1 dead

SMILES: CCc1ccc(Cc2c(Cl)ccc3c2COC32CC(O)C(O)C(CO)O2)cc1 (centres unmarked) [drawing 290]
- Behaviors after administration with the compound to be tested (deaths) (Mice; [2]): 2 dead

SMILES: CCOc1ccc(Cc2cc(C3CC(O)C(O)C(CO)S3)c(OC)cc2C)cc1 (centres unmarked) [drawing 291]
- Behaviors after administration with the compound to be tested (deaths) (Mice; [2]): 3 dead
